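Five concentrations, 48 hours, 96-well plates. The concentration for 50% growth inhibition is given as GI50. At the TGI there is no net growth.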
Columns and labels:
Assay in all cases: inhibition of tumour cell growth, NCI panel, 48 h
[1] = tested on: SNB-75 CNS
[2] = tested on: A549 NSCLC
[3] = tested on: BT-549 breast
[4] = tested on: SK-MEL-28 melanoma
[5] = tested on: SF-295 CNS
[6] = tested on: DU-145 prostate
[7] = tested on: LOX IMVI melanoma
[8] = tested on: OVCAR-4 ovarian
[9] = tested on: NCI/ADR-RES ovarian
[10] = tested on: SNB-19 CNS
[11] = tested on: EKVX NSCLC
[12] = tested on: MDA-MB-231 breast
[13] = tested on: T-47D breast
[14] = tested on: COLO 205 colon
[15] = tested on: HOP-92 NSCLC
[16] = tested on: PC-3 prostate
[17] = tested on: 786-0 renal
[18] = tested on: UACC-257 melanoma
[19] = tested on: SR leukemia
[20] = tested on: SK-MEL-5 melanoma
[21] = tested on: SF-268 CNS
[22] = tested on: KM12 colon
[23] = tested on: UACC-62 melanoma
[24] = tested on: HCT-116 colon
[25] = tested on: MOLT-4 leukemia
[26] = tested on: HT29 colon
[27] = tested on: HCT-15 colon
[28] = tested on: HOP-62 NSCLC
[29] = tested on: SN12C renal
[30] = tested on: CCRF-CEM leukemia
[31] = tested on: OVCAR-3 ovarian
[32] = tested on: SK-OV-3 ovarian
[33] = tested on: HCC-2998 colon
[34] = tested on: CAKI-1 renal
[35] = tested on: SW-620 colon
[36] = tested on: TK-10 renal
[37] = tested on: MALME-3M melanoma
[38] = tested on: NCI-H226 lung
[39] = tested on: OVCAR-5 ovarian
[40] = tested on: SK-MEL-2 melanoma
[41] = tested on: IGROV1 ovarian
[42] = tested on: RXF 393 renal
[43] = tested on: ACHN renal
[44] = tested on: NCI-H23 lung
[45] = tested on: RPMI-8226 leukemia
[46] = tested on: NCI-H522 lung
[47] = tested on: SF-539 CNS
[48] = tested on: OVCAR-8 ovarian
[49] = tested on: U251 CNS
[50] = tested on: M14 melanoma
[51] = tested on: NCI-H460 lung
[52] = tested on: MCF7 breast
[53] = tested on: MDA-MB-435
[54] = tested on: UO-31 renal

Q: How did the GI50 [1] turn out when O=C(COc1nc2ccccc2nc1-c1ccccc1)Nc1ccc(Cl)cc1 was run?
A: 27.7 µM

Q: What about the TGI [1] of the same molecule?
A: > 100 µM

Q: What about the GI50 [2] of the same molecule?
A: 27.8 µM

Q: And the TGI [2]?
A: > 100 µM

Q: What about the GI50 [3] of the same molecule?
A: 33.6 µM

Q: What about the TGI [3] of the same molecule?
A: > 100 µM

Q: What about the GI50 [4] of the same molecule?
A: 18.7 µM

Q: What about the TGI [4] of the same molecule?
A: > 100 µM

Q: What about the GI50 [5] of the same molecule?
A: 5.09 µM

Q: And the TGI [5]?
A: 40.1 µM

Q: What about the GI50 [6] of the same molecule?
A: 54.9 µM

Q: What about the TGI [6] of the same molecule?
A: > 100 µM

Q: What about the GI50 [7] of the same molecule?
A: 15.7 µM

Q: And the TGI [7]?
A: 49.2 µM

Q: What about the GI50 [8] of the same molecule?
A: 27.7 µM

Q: And the TGI [8]?
A: > 100 µM

Q: What about the GI50 [9] of the same molecule?
A: 4.46 µM

Q: And the TGI [9]?
A: > 100 µM

Q: What about the GI50 [10] of the same molecule?
A: 21.6 µM

Q: And the TGI [10]?
A: 89.1 µM

Q: What about the GI50 [11] of the same molecule?
A: 26.9 µM

Q: What about the TGI [11] of the same molecule?
A: > 100 µM

Q: What about the GI50 [12] of the same molecule?
A: 15.1 µM

Q: What about the TGI [12] of the same molecule?
A: 65 µM

Q: What about the GI50 [13] of the same molecule?
A: 37.5 µM

Q: And the TGI [13]?
A: > 100 µM

Q: What about the GI50 [14] of the same molecule?
A: 15.5 µM

Q: And the TGI [14]?
A: > 100 µM

Q: And the GI50 [15]?
A: 8.77 µM

Q: And the TGI [15]?
A: 36.7 µM

Q: What about the GI50 [16] of the same molecule?
A: 9.99 µM

Q: And the TGI [16]?
A: > 100 µM

Q: What about the GI50 [17] of the same molecule?
A: 14.3 µM

Q: What about the TGI [17] of the same molecule?
A: 71.3 µM

Q: What about the GI50 [18] of the same molecule?
A: 50.1 µM

Q: And the TGI [18]?
A: > 100 µM

Q: And the GI50 [19]?
A: 6.54 µM

Q: And the TGI [19]?
A: > 100 µM

Q: And the GI50 [20]?
A: 4.17 µM

Q: And the TGI [20]?
A: 19.7 µM

Q: And the GI50 [21]?
A: 18.5 µM

Q: What about the TGI [21] of the same molecule?
A: > 100 µM

Q: What about the GI50 [22] of the same molecule?
A: 8.38 µM

Q: And the TGI [22]?
A: > 100 µM

Q: What about the GI50 [23] of the same molecule?
A: 12.9 µM

Q: What about the TGI [23] of the same molecule?
A: 67.7 µM

Q: And the GI50 [24]?
A: 6.23 µM

Q: What about the TGI [24] of the same molecule?
A: 27.8 µM

Q: What about the GI50 [25] of the same molecule?
A: 12.6 µM

Q: And the TGI [25]?
A: > 100 µM

Q: And the GI50 [26]?
A: 11.4 µM

Q: And the TGI [26]?
A: > 100 µM

Q: And the GI50 [27]?
A: 15.1 µM

Q: What about the TGI [27] of the same molecule?
A: > 100 µM

Q: What about the GI50 [28] of the same molecule?
A: 11.9 µM

Q: And the TGI [28]?
A: 40.2 µM

Q: And the GI50 [29]?
A: 27.4 µM

Q: And the TGI [29]?
A: > 100 µM

Q: And the GI50 [30]?
A: 17.3 µM

Q: And the TGI [30]?
A: > 100 µM

Q: What about the GI50 [31] of the same molecule?
A: 5.56 µM

Q: What about the TGI [31] of the same molecule?
A: 36.9 µM

Q: What about the GI50 [32] of the same molecule?
A: 47.6 µM

Q: What about the TGI [32] of the same molecule?
A: > 100 µM

Q: And the GI50 [33]?
A: 15.6 µM

Q: What about the TGI [33] of the same molecule?
A: > 100 µM

Q: What about the GI50 [34] of the same molecule?
A: 9.04 µM

Q: And the TGI [34]?
A: > 100 µM

Q: What about the GI50 [35] of the same molecule?
A: 25.7 µM

Q: What about the TGI [35] of the same molecule?
A: > 100 µM

Q: What about the GI50 [36] of the same molecule?
A: 15.1 µM

Q: And the TGI [36]?
A: 76.8 µM

Q: And the GI50 [37]?
A: 20.9 µM

Q: What about the TGI [37] of the same molecule?
A: 66.3 µM

Q: And the GI50 [38]?
A: 10.2 µM

Q: What about the TGI [38] of the same molecule?
A: 49.1 µM

Q: What about the GI50 [39] of the same molecule?
A: 11 µM

Q: And the TGI [39]?
A: > 100 µM

Q: And the GI50 [40]?
A: 15.1 µM

Q: And the TGI [40]?
A: 58 µM

Q: What about the GI50 [41] of the same molecule?
A: 14.3 µM

Q: And the TGI [41]?
A: 49.4 µM

Q: And the GI50 [42]?
A: 29.3 µM

Q: And the TGI [42]?
A: 80 µM

Q: What about the GI50 [43] of the same molecule?
A: 14.4 µM

Q: What about the TGI [43] of the same molecule?
A: 37.9 µM

Q: What about the GI50 [44] of the same molecule?
A: 24.9 µM

Q: What about the TGI [44] of the same molecule?
A: > 100 µM

Q: What about the GI50 [45] of the same molecule?
A: 23.1 µM

Q: What about the TGI [45] of the same molecule?
A: > 100 µM

Q: And the GI50 [46]?
A: 3.5 µM

Q: And the TGI [46]?
A: 28.6 µM

Q: And the GI50 [47]?
A: 14.5 µM

Q: And the TGI [47]?
A: 45.4 µM

Q: What about the GI50 [48] of the same molecule?
A: 11.3 µM

Q: What about the TGI [48] of the same molecule?
A: > 100 µM

Q: What about the GI50 [49] of the same molecule?
A: 13.2 µM

Q: What about the TGI [49] of the same molecule?
A: 56.4 µM

Q: And the GI50 [50]?
A: 11.4 µM

Q: What about the TGI [50] of the same molecule?
A: 80.7 µM

Q: What about the GI50 [51] of the same molecule?
A: 9.79 µM

Q: What about the TGI [51] of the same molecule?
A: 77.8 µM

Q: And the GI50 [52]?
A: 36.8 µM

Q: And the TGI [52]?
A: > 100 µM

Q: What about the GI50 [53] of the same molecule?
A: 18.4 µM

Q: What about the TGI [53] of the same molecule?
A: > 100 µM

Q: What about the GI50 [54] of the same molecule?
A: 17.1 µM

Q: What about the TGI [54] of the same molecule?
A: > 100 µM

Reference: PubChem BioAssay (NCI)
